Measured values reported in patent US7803903B2, “Protein-binding doxorubicin peptide derivatives” (priority 2003, dated 2010).

Test system: A375 melanoma xenografts
Assay: tumor growth of subcutaneously growing A375 melanoma xenografts
Type: in vivo, nacked mice
Settings: i.v.; doxorubicin 2×8 mg/kg on days 8 and 15; FIG. 5
Protocol: Animals: nacked mice; stock solution of doxorubicin (2 mg/ml); stock solution of 1:6 mg/ml in 10 mM sodium phosphate, 5% D-glucose (pH 6.4), control (buffer): glucose phosphate buffer (10 mM sodium phosphate, 5% D-glucose—pH 6.4) on days 8 and 15.

Compound: COc1cccc2c1C(=O)c1c(O)c3c(c(O)c1C2=O)C[C@@](O)(C(=O)CO)C[C@@H]3O[C@H]1C[C@H](N)[C@H](O)[C@H](C)O1 [Doxorubicin, doxorubicin]
- relative tumor volume compared to treatment with the derivative according to the invention: approximately three times larger tumor volume
